Measured values from patent US8012503B2, “Method of enhancing absorptions of transmucosal administration formulations” (The Chinese University of Hong Kong, priority 2004, dated 2011).
Converted amounts (≈) assume the structure as drawn.

What was measured:
[1] = pHmax calculated from Ka, Si and Su; format: physicochemical; details: calculated after determining Si and Su
Text: [formula] in which Ka is the ionization constant (dissociation constant) of the active compound in water, Si is the solubility of the ionized form of the compound, and Su is the solubility of the non-ionized form of the compound.
(§1) [formula] in which Ka is the ionization constant (dissociation constant) of the active compound of the medicament in water, Si is the solubility of the ionized form of the compound, and Su is the solubility of the non-ionized form of the compound. Si and Su can be easily obtained by measuring the drug solubility at two extreme pH levels where the ionized or non-ionized species are dominating. For example, after determining the Si and Su of propranolol and sildenafil, their pHmax values are calculated to be 7.62 and 4.25, respectively.
(§2) It has been investigated that permeability across the sublingual mucosa is dependent on the concentration of non-ionized propranolol in the environment. When a formulation of propranolol provides saliva with pH of about 7.2 to about 7.8, propranolol should maintain relatively high solubility as well as high fraction of non-ionized form in the saliva of human oral cavity. Preferably, the formulation for sublingual delivery is at about pH 7.6. This can be confirmed by equation (I). For propranolol.

[2] = Solubility of ionized and non-ionized forms and ionization constant; format: physicochemical
Text: as §1, §2

[3] = oral administration of propranolol tablets, cited from earlier work

SMILES	pHmax [1]	solubility [2] [µg/mL]	onset of action [3]	plasma half-life [3] [h]	bioavailability ([3]; hepatic first-pass effect)
CC(C)NCC(O)COc1cccc2ccccc12 (stereo not drawn) [propranolol, 1-(isopropylamino)-3-(1-naphthyloxy)-2-propanol]	7.62	539 (≈ 2080 µM)	over 1 hr	2.8 to 4.4	10-30%
CCCc1nn(C)c2c(=O)[nH]c(-c3cc(S(=O)(=O)N4CCN(C)CC4)ccc3OCC)nc12 [sildenafil]	4.25				
